Assay: physchem

Compound: CCNC(=O)[C@@H]1CCCN1C(=O)[C@H](CCCNC(=N)N)NC(=O)[C@H](CC(C)C)NC(=O)[C@@H](Cc1c(C)[nH]c2ccccc12)NC(=O)[C@H](Cc1ccc(O)cc1)NC(=O)[C@H](CO)NC(=O)[C@H](Cc1c[nH]c2ccccc12)NC(=O)[C@H](Cc1c[nH]cn1)NC(=O)[C@@H]1CCC(=O)N1 [avoreline, 5-oxo-L-prolyl-L-histidil-L-tryptophil-L-seryl-L-tyrosil-2-methyl-D-tryptophil-L-leucyl-L-arginyl-N-ethyl-prolylamide]
- pKa (pKa): 9.7
- pKa (pKa (first value)): 6.15
- pKa (pKa (third printed value)): 12

Source: patent US6620422B1, “Compositions containing a peptide and polylactic-glycolic acid suitable for preparing subcutaneous implants with an extended release period” (Mediolanum Farmaceutici S.p.A., priority 1998, dated 2003)
